By viability is commonly meant the share of living cells, or the viability signal relative to a control.

The text below walks through data of EP0642351B1, “NEW PHARMACEUTICAL USES OF KRILL ENZYMES” (PHAIRSON MEDICAL, INC., priority 1992, dated 1993).

Where two headings read alike, the source gives them in different places.

Series [1] can be described thus: Example 39 - Cell viability (tox.) in HIV-contaminated cell lines, in vitro. Type of series: cell-based. The protocol:
(§1) This study was carried out at the Swedish National Bacterological Laboratory (SBL). Multi-Protein was compared to AZT and Foscarnet. All preparations were tested at dilutions from undiluted to 10^-5 (highest concentration for Multi-Protein was 5 mg/ml). The preparations were added to the cell linjes, HIV-I infected to 40-60%, under identical and standardized conditions.
(§2) Control: 50% infected cells. Cell toxicity and percentage of infected cells measured by immunofluorescence.
(§3) Control: 50% infected cells. Cell toxicity and percentage of infected cells measured by immanofluorescence.

Series [2] has as its system cell linjes, HIV-I infected to 40-60%. The series is described as above. In kind it is cell-based. As for the experimental part:
as §1, §2, §3

For series [3], the system named is primary and secondary liver cancer. The note with it: phase II study, Japan; T. Taguchi et al; cited from earlier work.
The next series concerns Yoshida Sarcoma. The note with it: cited from earlier work.
For series [4], the system named is mice with P388 murine leukemia. The series can be described thus: Toxicity on mice with s.c. implanted P388 murine leukemia, i.p. daily during 9 consecutive days. Type of series: in vivo. The note with it: 9 days. The protocol: It may be worth mentioning that the highest dose of PHIM (20 mg/kg) is far higher than any of the curing doses used in any of the clinical examples which have been reported earlier in this description.

In series [1], `Cc1cn([C@H]2C[C@H](N=[N+]=[N-])[C@@H](CO)O2)c(=O)[nH]c1=O` [AZT] gave a viability of 100%. In series [2], the “effect on the cells in the cultures” value is “all cells in the cultures were attacked and killed”.

For `COc1cccc2c1C(=O)c1c(O)c3c(c(O)c1C2=O)C[C@@](O)(C(=O)CO)C[C@@H]3O[C@H]1C[C@H](N)[C@H](O)[C@H](C)O1` [Adriamycin], the “response rate (CR and PR)” value in series [3] was 9.5%.

For the compound `N.N.[Cl][Pt][Cl]` [Cisplatin], the “tumour cells not killed” value in the series with Yoshida Sarcoma (cells removed from the tumour and cultured) is listed as 53%.

In the case of `COc1cccc2c1C(=O)c1c(O)c3c(c(O)c1C2=O)C[C@@](O)(C(=O)CO)C[C@@H]3O[C@H]1C[C@H](N)[C@H](O)[C@H](C)O1` [DOX, doxorubicin], the Toxic death is recorded as 0/6 in series [4] (Dose 1.25 mg/kg i.p. daily), 6/6 in series [4] (Dose 2.5 mg/kg i.p. daily) and 6/6 in series [4] (Dose 5 mg/kg i.p. daily). For the same compound, the “Body weight change” value in series [4] (Dose 5 mg/kg i.p. daily) was -2.3 g.

Consider `O=C(O)P(=O)(O)O` [Foscarnet], for which the viability in series [1] (Trial 1, moi 0.4, Multi-Protein: deformed cells, read-out: Cell viability (tox.)) is 100%. In addition, in series [2] (at low dilutions), the “effect on the cells in the cultures” value is “all cells in the cultures were attacked and killed”.

For `CO[C@@]12[C@H](COC(N)=O)C3=C(C(=O)C(C)=C(N)C3=O)N1C[C@@H]1N[C@@H]12` [Mitomycin C], the “response rate (CR and PR)” value in series [3] was 20%. For the same compound, the side effect profile result with Yoshida Sarcoma (0.5 mg/kg as well as lower doses) was “loss of body weight, hair loss, decreased leucocytes and chronic diarrhoea”. In the series on Yoshida Sarcoma (0.5 mg/kg or even higher doses), the “effect on Yoshida Sarcoma resistant to Mitomycin C” value was “no effects could be detected”. Moreover, in the series on Yoshida Sarcoma (non-resistant Yoshida Sarcoma, doses up to 0.5 mg/kg), the “efficacy calculated as 30 days of survival of the rats” value is on record as about 100%.
